# From US20240059661A1, “SOLID STATE FORMS OF 2-(3,5-DICHLOROPHENYL)-1,3-BENZOXAZOLE-6-CARBOXYLIC ACID OR ITS PHARMACEUTICALLY ACCEPTABLE SALTS AND POLYMORPHS THEREOF” (CIPLA LIMITED, priority 2021, published 2024)
# Columns and labels:
# [1] = Forced degradation study (solid state stability) of Tafamidis Form C1; assay type: physicochemical
# Source text: Forced degradation is synonymous with stress testing and purposeful degradation. Purposeful degradation can be a useful tool to predict the stability of a drug substance or a drug product with effects on purity, potency, and safety. It is imperative to know the impurity profile and behavior of a drug substance under various stress conditions. Forced degradation also plays an important role in the development of analytical methods, setting specifications, and design of formulations under the quality-by-design (QbD) paradigm. The nature of the stress testing depends on the individual drug substance and the type of drug product (e.g., solid oral dosage, lyophilized powders, and liquid formulations) involved.
# A forced degradation study was performed to generate potential degradation products and assess stability liabilities. Tafamidis form C1 prepared as per the present disclosure was subjected to forced degradation study with below specified conditions. […] The samples were analysed at pre-determined time intervals for PXRD, HPLC purity and water content. […] The forced degradation results for Tafamidis Form C1 are tabulated below in Table 1.
# [2] = Indicative stability of Tafamidis Form C1 on storage up to 6 months; assay type: physicochemical
# Protocol: The stability of Tafamidis form C1 prepared as per the present disclosure was studied by storing the samples at 2-8° C., 25° C./60% RH; and 40° C./75% RH storage conditions upto 6 months. The samples were analysed for PXRD, HPLC purity and water content at pre-determined time intervals of 1M, 2M, 3M and 6M.
# The stability data collected after 6 months of storage are tabulated below in Table 2.
compound,measurement,setting,value
"O=C(O)c1ccc2nc(-c3cc(Cl)cc(Cl)c3)oc2c1 [Form C1, 2-(3,5-Dichlorophenyl)-1,3-benzoxazole-6-carboxylic acid]",Description,"[1]; 0 D, Initial",off-white powder
same,HPLC Purity,"[1]; 0 D, Initial",99.98
same,PXRD,"[1]; 0 D, Initial",Form C1
same,Water content KF,"[1]; 0 D, Initial",0.57%
same,Description,"[1]; 5 D, 60°C/80% RH",off-white powder
same,HPLC Purity,"[1]; 5 D, 60°C/80% RH",99.97
same,Water content KF,"[1]; 5 D, 60°C/80% RH",0.62%
same,Description,"[1]; 6 Hours (DHS), 105° C.",off-white powder
same,HPLC Purity,"[1]; 6 Hours (DHS), 105° C.",99.98
same,Description,"[1]; 6 Hours, 120° C.",off-white powder
same,HPLC Purity,"[1]; 6 Hours, 120° C.",99.99
same,Description,"[1]; 7 D, 25° C./60% RH Closed cup",off-white powder
same,HPLC Purity,"[1]; 7 D, 25° C./60% RH Closed cup",99.98
same,Water content KF,"[1]; 7 D, 25° C./60% RH Closed cup",0.42%
same,Description,"[1]; 7 D, 25° C./60% RH Open cup",off-white powder
same,HPLC Purity,"[1]; 7 D, 25° C./60% RH Open cup",99.98
same,Water content KF,"[1]; 7 D, 25° C./60% RH Open cup",0.48%
same,Description,"[1]; 7 D, 40° C./75% RH Closed cup",off-white powder
same,HPLC Purity,"[1]; 7 D, 40° C./75% RH Closed cup",99.98
same,Water content KF,"[1]; 7 D, 40° C./75% RH Closed cup",0.45%
same,Description,"[1]; 7 D, 40° C./75% RH Open cup",off-white powder
same,HPLC Purity,"[1]; 7 D, 40° C./75% RH Open cup",99.98
same,Water content KF,"[1]; 7 D, 40° C./75% RH Open cup",0.72%
same,Description,[1]; 10 TORR,off-white powder
same,HPLC Purity,[1]; 10 TORR,99.99
same,degradation under stress conditions,[1]; any of the stress conditions,did not show any degradation
same,"change with respect to PXRD, HPLC purity and water content","[1]; forced degradation, all conditions of Table 1",no significant change
same,Description,"[2]; 0, Initial",Off-white colour
same,HPLC Purity,"[2]; 0, Initial",99.99
same,PXRD,"[2]; 0, Initial",Form C1
same,Water content KF,"[2]; 0, Initial",0.34%
same,Description,"[2]; 1 month, 2-8° C.",Off-white colour
same,HPLC Purity,"[2]; 1 month, 2-8° C.",99.98
same,Water content KF,"[2]; 1 month, 2-8° C.",0.88%
same,Description,"[2]; 1 month, 25° C./60% RH",Off-white colour
same,HPLC Purity,"[2]; 1 month, 25° C./60% RH",99.98
same,Water content KF,"[2]; 1 month, 25° C./60% RH",0.85%
same,Description,"[2]; 1 month, 40° C./75% RH",Off-white colour
same,HPLC Purity,"[2]; 1 month, 40° C./75% RH",99.99
same,Water content KF,"[2]; 1 month, 40° C./75% RH",0.8%
same,Description,"[2]; 2 months, 2-8° C.",Off-white colour
same,HPLC Purity,"[2]; 2 months, 2-8° C.",99.98
same,Water content KF,"[2]; 2 months, 2-8° C.",0.63%
same,Description,"[2]; 2 months, 25° C./60% RH",Off-white colour
same,HPLC Purity,"[2]; 2 months, 25° C./60% RH",99.98
same,Water content KF,"[2]; 2 months, 25° C./60% RH",0.68%
same,Description,"[2]; 2 months, 40° C./75% RH",Off-white colour
same,HPLC Purity,"[2]; 2 months, 40° C./75% RH",99.98
same,Water content KF,"[2]; 2 months, 40° C./75% RH",0.78%
same,Description,"[2]; 3 months, 2-8° C.",Off-white colour
same,HPLC Purity,"[2]; 3 months, 2-8° C.",99.98
same,Water content KF,"[2]; 3 months, 2-8° C.",1.02%
same,Description,"[2]; 3 months, 25° C./60% RH",Off-white colour
same,HPLC Purity,"[2]; 3 months, 25° C./60% RH",99.98
same,Water content KF,"[2]; 3 months, 25° C./60% RH",0.92%
same,Description,"[2]; 3 months, 40° C./75% RH",Off-white colour
same,HPLC Purity,"[2]; 3 months, 40° C./75% RH",99.98
same,Water content KF,"[2]; 3 months, 40° C./75% RH",0.85%
same,Description,"[2]; 6 months, 2-8° C.",Off-white colour
same,HPLC Purity,"[2]; 6 months, 2-8° C.",99.98
same,Water content KF,"[2]; 6 months, 2-8° C.",0.79%
same,Description,"[2]; 6 months, 25° C./60% RH",Off-white colour
same,HPLC Purity,"[2]; 6 months, 25° C./60% RH",99.98
same,Water content KF,"[2]; 6 months, 25° C./60% RH",0.61%
same,Description,"[2]; 6 months, 40° C./75% RH",Off-white colour
same,HPLC Purity,"[2]; 6 months, 40° C./75% RH",99.98
same,Water content KF,"[2]; 6 months, 40° C./75% RH",0.65%
same,"change with respect to PXRD, HPLC purity and water content","[2]; all the storage conditions (2-8° C., 25° C./60% RH, 40° C./75% RH) up to 6 months",no significant change
